By Ki is commonly meant a measure of affinity in units of concentration, obtained from inhibition or displacement. By IC50 is commonly meant the concentration that inhibits the measured activity by half. In general, melting point refers to the temperature, or range, at which the solid turns liquid.

Details of data set [1]: method as in doi:10.1021/ja00103a024. The conditions noted are these: in D2O, cited from earlier work.
Data set [2] addresses H. influenzae DapE (HiDapE) (Haemophilus influenzae, UniProt P44514). Nature of the data set: Thermal shift assay (SYPRO Orange). Type of data set: binding. Here is the method:
A thermal shift assay was conducted to observe changes in the thermal stability of DapE under various concentrations of the inhibitor 3y, as summarized in Table 2. These studies were conducted on a Step One Real-Time PCR System and associated QuantStudio software (QuantStudio 5, Design and Analysis 2) through the fluorescence of the SYPRO Orange dye during protein denaturation. […] Upon addition of the inhibitor 3y, we observed a stabilization of the tertiary structure of the enzyme binding to the inhibitor, as indicated by a positive shift in the first melt temperature (Tm1). […] The thermal shift assay plot of Tm vs. log [3y (µM)] to determine the Ki of compound 3y is in the Supplementary Materials as Figure S82. […] Binding of a ligand most commonly leads to further stabilization of a protein, but destabilization as indicated by a lower Tm has been observed by others. Based on our previous work, [27] we observed sequential temperatures at which HiDapE was dissociating via circular dichroism: first at about 60 °C, which we hypothesize is the dimer dissociating, and a second at about 80 °C, which may represent denaturation of the monomer.
H. influenzae DapE was used at a final concentration of 200 nM and SYPRO Orange was used at a final concentration of 10×. It was performed in a Step One Real-Time PCR System (Applied Biosystems, Waltham, MA, USA). The experiment was carried out in 10 µL triplicates in 50 mM HEPES buffer at pH 7.5, nanopure water, and the inhibitor concentrations were based on the IC50 values of the inhibitor, 3y. Sample solutions were dispensed into a 96-well optical reaction plate (Thermo Fisher Scientific, Waltham, […], USA) and the plate was sealed with an optical PCR plate sheet (Thermo Fisher Scientific). […] Melting curves were obtained from the negative derivative and exported from the instrument into Excel. The negative melting temperatures were smoothed and differentiated to the negative third derivative. The Tm data were plotted against the log(concentration of 3y) with GraphPad Prism using a derived Van’t Hoff equation [39] to find the Ki value.

A short description of data set [3]: Cyclobutanone/hydrate equilibrium by NMR. Type of data set: physicochemical. An excerpt: Cyclobutanone 3y is soluble in CDCl3, but we wanted to vary the amount of D2O, and water has a solubility of only 0.815% in chloroform, so varying the quantity of D2O would not alter the concentration of D2O in CDCl3 solution once saturation is reached. We therefore selected DMSO-d6 as the solvent to enable the varying of the D2O concentration, which also provides a more polar environment that is more conducive to hydrate formation and is a better mimic of the environment of the enzyme in aqueous media. The ratio of hydrate to ketone was determined by the ratio of the integrals of the proton alpha to the hydrate/carbonyl and the α-amino group, which was 4.67 ppm for the hydrate in DMSO-d6 + 20% D2O and 4.40 ppm for the cyclobutanone ketone in DMSO-d6 + 20% D2O.
Cyclobutanone 3y was massed to 2–3 mg and the exact mass was recorded. Compound 3y was then dissolved in the appropriate amount of deuterated solvent (DMSO-d6 or CDCl3) and vortexed. The appropriate amount of deuterium oxide (0%, 2%, 10%, 20%, or 30%) was added to the sample and the sample was vortexed. The sample was inserted into the Bruker 500 MHz NMR and data were collected for 64 scans. The raw data were analyzed with the Mnova NMR program, and the Keq was calculated via the method described by the Wiberg group.

For another data set, the target named is HiDapE (Haemophilus influenzae, UniProt P44514). In words: DapE inhibition, ninhydrin-based assay. The conditions noted are these: for inhibition at 100 µM: 100 µM inhibitor, read-out: DapE % Inhib at 100 µM. Type of data set: biochemical. The procedure:
All compounds were screened for DapE inhibitory potency using a ninhydrin-based assay at 100 μM, and IC50 values were determined for molecules that inhibited DapE > 70% at 100 μM (Table 1). Some SAR trends emerge from the data.
Experimental IC50 curves for cyclobutanone inhibitors against DapE were identified as sigmoidal shaped response curves, as opposed to simple hyperbolic plots. […] IC50 curves with the corresponding Hill coefficients are reported in the Supplementary Materials as Figures S74−S81. Experimental Hill coefficients may provide information on the number of binding sites of a biological target (receptors and enzymes) interacting with ligands.
The inhibition of HiDapE by potential inhibitors was assessed using the previously developed ninhydrin assay with slight modifications. It was performed in a PCR Thermal Cycler System. All experiments were performed in triplicate in 50 mM HEPES buffer at pH 7.5. Reaction volumes were 100 µL of 2 mM N^6-Methyl-L,L-SDAP and 8 nM HiDapE. Ninhydrin was purchased as a 2% solution in 100% DMSO/lithium acetate buffer at pH 5.2. The inhibitor, followed by HiDapE, was added to a 50 mM HEPES (pH 7.5) buffered solution at 30 °C, and the mixture was incubated at 30 °C for 10 min. N^6-Methyl-L,L-SDAP was added, and the reaction mixture was incubated at 30 °C for 10 min, then heated to 99 °C for 1 min, and further cooled to 0 °C for 1 min. The 2% ninhydrin solution (50 µL) was added, and the mixture was thoroughly mixed. The reaction mixture was heated to 80 °C for 15 min, then cooled to 0 °C for 1 min. The absorbance of an 80 μL aliquot was recorded at 570 nm on a BioTek Synergy 2 microplate reader. All the inhibition assays of HiDapE were performed in triplicate and the IC50 values were obtained by fitting the data following the modified Hill equation: V = V0 + (Vmax − V0) XnH/(XnH0.5 + XnH) using the graphing suite Origin 9.1 with the Levenberg–Marquardt non-linear least-squares algorithm. The velocity in the absence of the substrate is […]; the velocity at saturating concentrations of the substrate or with no inhibitor for the inhibition assay is Vmax; X is the concentration of the substrate or inhibitor; and X0.5 is the substrate (S0.5) and inhibitor (I0.5) concentration at 50% maximum velocity and at 50% inhibition, respectively. The Hill coefficient is represented as nH.

The test system of the next data set is DapE. As to conditions: cited from earlier work.

“And” between values parts separate entries of the source, which are not always exact repeats. Identical values can stand only once. Like-named read-outs stand apart in the source and are kept apart here.

Sequence of HiDapE (P44514 whole entry): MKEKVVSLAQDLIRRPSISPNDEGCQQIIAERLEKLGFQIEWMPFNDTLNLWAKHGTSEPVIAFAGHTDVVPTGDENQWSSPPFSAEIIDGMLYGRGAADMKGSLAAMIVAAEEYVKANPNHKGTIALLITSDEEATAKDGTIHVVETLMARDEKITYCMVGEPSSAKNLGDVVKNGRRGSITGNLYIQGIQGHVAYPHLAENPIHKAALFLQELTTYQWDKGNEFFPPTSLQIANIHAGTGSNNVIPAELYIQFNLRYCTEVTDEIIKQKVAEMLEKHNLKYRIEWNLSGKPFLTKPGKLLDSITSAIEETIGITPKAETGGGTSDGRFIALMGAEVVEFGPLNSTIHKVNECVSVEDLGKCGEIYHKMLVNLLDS
Sequence of H. influenzae DapE (HiDapE) (P44514 whole entry): as above

Take `O=C1CCC1` [Cyclobutanone, cyclobutanone]: in data set [1], the “% Hydrate” value was 2.0% and the “Keq = [hydrate]/[ketone]” value was 2.8 × 10^−3. Moreover, the “% Hydrate” value in data set [1] (listed as cyclobutanone) is “about 2%”.

`COc1ccc(S(=O)(=O)N[C@@H](C(=O)NC2CCC2=O)C(C)C)cc1` (mixture of isomers) [3y, (2R)-2-((4-Methoxyphenyl)sulfonamido)-3-methyl-N-(2-oxocyclobutyl)butanamide] registered a melting point of 179 to 181 °C. In data set [2] (200 nM HiDapE + 1 μM 3y), the Tm1 was 49.6 +/− 0.18 °C and the Tm2 was 76.5 +/− 0.54 °C. Further, in data set [2] (200 nM HiDapE + 5 μM 3y), the Tm1 is 49.0 +/− 0.30 °C and the Tm2 is 77.3 +/− 0.20 °C. Also, in data set [2] (200 nM HiDapE + 10 μM 3y), the Tm1 was 50.0 +/− 0.34 °C and the Tm2 is 77.3 +/− 0.23 °C. Also, in data set [2] (200 nM HiDapE + 20 μM 3y), the Tm1 was 51.2 +/− 0.13 °C and the Tm2 was 77.3 +/− 0.51 °C. Besides, in data set [2] (200 nM HiDapE + 30 μM 3y), the Tm1 is 52.1 +/− 0.5 °C and the Tm2 is 75.1 +/− 0.17 °C. Further, in data set [2] (200 nM HiDapE + 40 μM 3y), the Tm1 is 52.7 +/− 0.37 °C and the Tm2 is 75.2 +/− 0.11 °C. Further, in data set [2] (200 nM HiDapE + 50 μM 3y), the Tm1 is 53.4 +/− 0.23 °C and the Tm2 is 74.7 +/− 0.40 °C. For the same molecule, in data set [2] (200 nM HiDapE + 60 μM 3y), the Tm1 was 54.1 +/− 0.35 °C and the Tm2 is 75.1 +/− 0.23 °C. Besides, in data set [2] (200 nM HiDapE + 75 μM 3y), the Tm1 was 54.6 +/− 0.42 °C; the Tm2 was 75.7 °C and 75.7 +/− 0.29 °C. The inhibitory constant (Ki) in data set [2] (from Tm1 vs log[3y], 200 nM HiDapE) was 10.2 µM. The “% Hydrate” value in data set [3] (CDCl3 + 30% D2O) is reported as 7.33%. Also, the “Keq = [hydrate]/[ketone]” value in data set [3] (CDCl3 + 30% D2O (saturated with D2O)) was 0.082. For the same molecule, in data set [3] (DMSO-d6 + 2% D2O), the “% Hydrate” value is on record as 35.4% and the “Keq = [hydrate]/[ketone]” value was found to be 0.58. Moreover, in data set [3] (DMSO-d6 + 10% D2O), the “% Hydrate” value is on record as 38.8% and the “Keq = [hydrate]/[ketone]” value is on record as 0.61. The “% Hydrate” value in data set [3] (DMSO-d6 + 20% D2O) is reported as 40%. The inhibition at 100 µM at HiDapE stood at 99.7%. Besides, the IC50 on HiDapE (ninhydrin assay) amounted to 23.1 ± 0.9 µM.

The molecule `O=C(NC1CCC1=O)c1ccc(Br)cc1` (centres unmarked) [3f, 4-Bromo-N-(2-oxocyclobutyl)benzamide] registered a melting point of 104 to 105 °C. The inhibition at 100 µM on HiDapE is 25.2%.

For `C[C@H](CS)C(=O)N1CCC[C@H]1C(=O)O` [captopril], the DapE inhibition entry with DapE is “low micromolar inhibitor”.

The values are drawn from publication PMC10815964, “Cyclobutanone Inhibitors of Diaminopimelate Desuccinylase (DapE) as Potential New Antibiotics” (International Journal of Molecular Sciences, 2024).
